# From patent publication US6420455B1, “Antimicrobial composition containing photosensitizers articles, and methods of use” (3M Innovative Properties Company, priority 1999, dated 2002)
# How the values were obtained:
# Experiment in all cases: Zone of inhibition of dye-dipped filter disks on agar lawn
# [1] = tested on: Staph. Aureus; type: cell-based, Staphylococcus aureus; details: for Zone of Inhibition in Dark: 10 mg/ml dye in water on 6-mm disk; for Zone of Inhibition in Room Light (after 30 min.) / Zone of Inhibition in Room Light, 15 Minutes / Zone of Inhibition in Room Light Overnight: 10 mg/ml dye on 6-mm disk
# Protocol: (§1) The procedure used for testing for antibacterial and antifungal activity is as follows.
# Bacteria or fungi stock was plated onto Trypticase Soy Broth (TSB) agar (Becton Dickinson, Cockeysville, Md.) and incubated at 37° C. overnight, at which time several colonies were transferred to phosphate buffered saline (PBS) to give a solution with final concentration of 10^6 bacteria/ml or fungi/ml, as determined by comparison of turbidity with McFarland standards. Subsequently, a lawn of the bacterium or fungus was prepared by triple swabbing a Trypticase Soy broth agar plate (prepared using TSB and agar according to label instructions). Then, 6-mm diameter paper filter disks were dipped into one of the dyed solutions, blotted to remove the excess solution, and placed on the agar plates. […]
# (§2) The plates were removed from the incubator and inspected for clear areas surrounding treated 6-mm filter disks that are indicative of prevention of growth of bacteria. The diameter of each clear area was measured and recorded and compared with controls.
# [2] = tested on: Salmonella spp.; type: cell-based; details: for Zone of Inhibition in Dark: 10 mg/ml dye on 6-mm disk
# Protocol: as §1
# (§3) Bacteria or fungi stock was plated onto Trypticase Soy Broth (TSB) agar (Becton Dickinson, Cockeysville, Md.) and incubated at 37° C. overnight, at which time several colonies were transferred to phosphate buffered saline (PBS) to give a solution with final concentration of 10^6 bacteria/ml or fungi/ml, as determined by comparison of turbidity with McFarland standards. Subsequently, a lawn of the bacterium or fungus was prepared by triple swabbing a Trypticase Soy broth agar plate (prepared using TSB and agar according to label instructions). Then, 6-mm diameter paper filter disks were dipped into one of the dyed solutions, blotted to remove the excess solution, and placed on the agar plates. Each plate was then either kept in the dark (control) or irradiated for 15 minutes in room light or for overnight in room light before incubation at 37° C. for 24 hours.
# as §2
# [3] = tested on: C. albicans; type: cell-based, Candida albicans; details: for Zone of Inhibition in Dark: 10 mg/ml dye on 6-mm disk
# Protocol: as §1, §3, §2
# [4] = tested on: E. coli; type: cell-based, Escherichia coli; details: for Zone of Inhibition in Dark: 10 mg/ml dye on 6-mm disk
# Protocol: as §1, §3, §2
# [5] = tested on: P. aeruginosa; type: cell-based, Pseudomonas aeruginosa; details: for Zone of Inhibition in Dark: 10 mg/ml dye on 6-mm disk
# Protocol: as §1, §3, §2
# [6] = tested on: E. faecium; type: cell-based, Enterococcus faecium; details: for Zone of Inhibition in Dark: 10 mg/ml dye on 6-mm disk
# Protocol: as §1, §3, §2
SMILES,Zone of Inhibition in Dark [1] [mm],Zone of Inhibition in Room Light (after 30 min.) [1] [mm],Zone of Inhibition in Dark [2] [mm],"Zone of Inhibition in Room Light, 15 Minutes [2] [mm]",Zone of Inhibition in Room Light Overnight [2] [mm],"Zone of Inhibition in Room Light, 15 Minutes [1] [mm]",Zone of Inhibition in Room Light Overnight [1] [mm],Zone of Inhibition in Dark [3] [mm],"Zone of Inhibition in Room Light, 15 Minutes [3] [mm]",Zone of Inhibition in Room Light Overnight [3] [mm],Zone of Inhibition in Dark [4] [mm],"Zone of Inhibition in Room Light, 15 Minutes [4] [mm]",Zone of Inhibition in Room Light Overnight [4] [mm],Zone of Inhibition in Dark [5] [mm],"Zone of Inhibition in Room Light, 15 Minutes [5] [mm]",Zone of Inhibition in Room Light Overnight [5] [mm],Zone of Inhibition in Dark [6] [mm],"Zone of Inhibition in Room Light, 15 Minutes [6] [mm]",Zone of Inhibition in Room Light Overnight [6] [mm]
CN(C)c1ccc(C(=C2C=CC(=[N+](C)C)C=C2)c2ccc(N(C)C)cc2)cc1 [Crystal Violet],30,30,–,–,–,–,–,–,–,–,–,–,–,–,–,–,–,–,–
CN(C)c1ccc2nc3ccc(=[N+](C)C)cc-3sc2c1 [Methylene Blue],18,–,0,0,0,20,28,12,12,18,8,0,0,0,0,0,16,16,19
O=C([O-])c1c(Cl)c(Cl)c(Cl)c(Cl)c1-c1c2cc(I)c(=O)c(I)c-2oc2c(I)c([O-])c(I)cc12.[Na+].[Na+] [Rose Bengal disodium salt],23,–,7,8,19,21,36,0,0,13,0,0,11,0,0,13,19,19,34
Cc1cc2nc3ccc(N(C)C)cc3[s+]c2cc1N.[Cl-] [Toluidine Blue O],20,19,–,–,–,–,–,–,–,–,–,–,–,–,–,–,–,–,–
